Results reported in ChEMBL document CHEMBL3860036, “Sesquiterpene Hydroquinones with Protein Tyrosine Phosphatase 1B Inhibitory Activities from a Dysidea sp. Marine Sponge Collected in Okinawa” (J Nat Prod, 2016).

molecular target: T1, Tyrosine-protein phosphatase non-receptor type 1 (Homo sapiens) (UniProt P18031); conditions: 32 uM
T1 sequence (whole entry): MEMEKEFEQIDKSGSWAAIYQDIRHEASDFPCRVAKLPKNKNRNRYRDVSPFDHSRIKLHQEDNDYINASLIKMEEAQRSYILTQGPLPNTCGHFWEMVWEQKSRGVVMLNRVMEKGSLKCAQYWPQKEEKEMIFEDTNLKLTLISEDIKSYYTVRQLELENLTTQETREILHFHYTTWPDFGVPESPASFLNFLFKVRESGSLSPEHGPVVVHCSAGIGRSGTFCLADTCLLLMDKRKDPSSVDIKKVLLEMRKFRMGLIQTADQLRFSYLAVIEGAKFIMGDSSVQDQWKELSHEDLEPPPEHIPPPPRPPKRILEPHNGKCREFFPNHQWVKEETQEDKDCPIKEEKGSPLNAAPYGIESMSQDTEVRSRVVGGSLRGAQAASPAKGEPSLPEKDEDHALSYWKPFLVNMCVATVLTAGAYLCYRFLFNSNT
Description: Inhibition of recombinant human PTP1B (1 to 322 residues) expressed in Escherichia coli at 32 uM preincubated for 10 mins followed by pNPP substrate addition measured after 30 mins relative to control

| inhibition [%] | Structure (SMILES) |
| --- | --- |
| 35 | C=C1CCC[C@H]2[C@](C)(Cc3cc(O)ccc3O)[C@@H](C)CC[C@]12C |

molecular target: T2, Tyrosine-protein phosphatase non-receptor type 1 (Homo sapiens, UniProt P18031); conditions: not given
T2 sequence (P18031 whole entry): T1 sequence (whole entry)

| IC50 [µM] | Structure (SMILES) |
| --- | --- |
| 11 | CC1=CCC[C@H]2[C@]3(C)Cc4cc(O)ccc4O[C@]3(C)CC[C@]12C |
| 10 | CC(=O)Oc1ccc(O)c(C[C@]2(C)[C@@H](C)CC[C@]3(C)C(C)=CCC[C@@H]23)c1 |
| 8.8 | CCC(=O)Oc1ccc(OC(=O)CC)c(C[C@]2(C)[C@@H](C)CC[C@]3(C)C(C)=CCC[C@@H]23)c1 |

Continued, compound first:

| Structure (SMILES) | IC50 [µM] |
| --- | --- |
| C=C1CCC[C@H]2[C@](C)(Cc3cc(OC(C)=O)ccc3O)[C@@H](C)CC[C@]12C | 8.6 |
| C=C1CCC[C@H]2[C@](C)(Cc3cc(O)ccc3O)[C@@H](C)CC[C@]12C | > 32 |
| C=C1CCC[C@H]2[C@](C)(Cc3cc(O)ccc3OC(C)=O)[C@@H](C)CC[C@]12C | 6.5 |
| CC1=CCC[C@H]2[C@](C)(CC3=CC(=O)C=C(N)C3=O)[C@@H](C)CC[C@]12C | 18 |
| C=C1CCC[C@H]2[C@](C)(Cc3cc(OC(=O)CC)ccc3OC(=O)CC)[C@@H](C)CC[C@]12C | 9.4 |
| C=C1CCC[C@H]2[C@](C)(Cc3cc(OC(C)=O)ccc3OC(C)=O)[C@@H](C)CC[C@]12C | 14 |
| CC(=O)Oc1ccc(O)cc1C[C@]1(C)[C@@H](C)CC[C@]2(C)C(C)=CCC[C@@H]12 | 9.5 |
| CC1=CCC[C@H]2[C@](C)(Cc3cc(O)ccc3O)[C@@H](C)CC[C@]12C [AVAROL] | 12 |

molecular target: T1, Tyrosine-protein phosphatase non-receptor type 1 (Homo sapiens); assay: Inhibition of recombinant human PTP1B (1 to 322 residues) expressed in Escherichia coli at 31 uM preincubated for 10 mins followed by pNPP substrate addition measured after 30 mins relative to control; conditions: not given

| inhibition [%] | Structure (SMILES) |
| --- | --- |
| 50 | C=C1CCC[C@H]2[C@](C)(Cc3cc(OC)ccc3O)[C@@H](C)CC[C@]12C |
| 0 | COc1ccc(O)c(C[C@]2(C)[C@@H](C)CC[C@]3(C)C(C)=CCC[C@@H]23)c1 |

molecular target: T1, Tyrosine-protein phosphatase non-receptor type 1 (Homo sapiens); conditions: 25 uM
Description: Inhibition of recombinant human PTP1B (1 to 322 residues) expressed in Escherichia coli at 25 uM preincubated for 10 mins followed by pNPP substrate addition measured after 30 mins relative to control

| inhibition [%] | Structure (SMILES) |
| --- | --- |
| 5 | CC(=O)Oc1ccc(OC(C)=O)c(C[C@]2(C)[C@@H](C)CC[C@]3(C)C(C)=CCC[C@@H]23)c1 |
